According to patent US12319675B2 (Artax Biopharma Inc., priority 2018, dated 2025):
Where two headings read alike, the source gives them in different places.

Key:
[1] = target: Nck SH3 domain interaction with the proline rich sequence of TCR subunit CD3ε (Homo sapiens, UniProt P16333); experiment: Competitive binding, biosensor with Interferometric Optical Detection Method (IODM); settings: ratio of 1:1 between Nck SH3 domain and inhibitors; biotinylated CD3ε peptide on sensing surface
Experimental: Inhibition of Nck SH3 domain interaction with the proline rich sequence of TCR subunit CD3ε was measured by optical read-out of a biosensor based on the Interferometric Optical Detection Method (IODM), using established methods (WO 2010/026269; WO 2014/020159; Laguna, M. et al., Sensors, 2015, 15(8):19819-29; and Holgado, M. et al., Sensors, 2014, 14(2): 3675-89).
Briefly, a Biophotonic Cell (BICELL) based on Fabry-Perot interferometers was used as the photonic transducer. The BICELL was fabricated using SU8 in cyclopentanone according to known methods (e.g., Laguna, M. F. et al., Sensors, 2014, 14(4): 6695-6700). Cured film was then treated with 95% sulfuric acid for 10 seconds. Streptavidin was then immobilized on the sensing surface in phosphate buffered saline (PBS; pH 7.4) over 20 min at 37° C. followed by blocking of the surface with 5% skin milk in PBS (pH 7.4). Biotinylated CD3ε peptide (SEQ ID NO: 001) in PBS (pH 7.4) was incubated with the streptavidin coated film to biofunctionalize the sensing surface (20 min at 37° C.).
Competitive binding assays were performed to determine the affinity reaction of inhibitors. The screening was carried out using a ratio of 1:1 between Nck SH3 domain and inhibitors. The optical readout of the biosensor was accomplished by a Fourier transform visible-infrared (FT-VIS-IR) spectrometer. Competitive binding results are shown in Table 3 for selected compounds of the invention. The compound numbers correspond to the compound numbers in Table 1. Compounds having a designation of “A” provide an Increased Relative Optical Power (ΔIROP) of less than or equal to thirty percent (≤30%); compounds having a designation of “B” provide a ΔIROP of between thirty and fifty percent (>30% to ≤50%); compounds having a designation of “C” provide an ΔIROP of between fifty and seventy percent (>50% to ≤70%); and compounds having a designation of “D” provide a ΔIROP of greater than seventy percent (>70%).

[2] = Microsomal stability assay, rat; format: in vitro ADME; settings: rat microsomes; for half-life: read-out: Microsomal Stability (T1/2 min) Rat
Experimental: (§1) Microsomal stability assays were performed using mouse, rat, and human […] according to methods well-known in the art. Microsomal stability results are shown in Table 2 for selected compounds of the invention. The compound numbers correspond to the compound numbers in Table 1. […] “N/A” indicates not assayed.

[3] = Microsomal stability assay, mouse; format: in vitro ADME; settings: mouse microsomes; for half-life: read-out: Microsomal Stability (T1/2 min) Mouse
Experimental: as §1

[4] = test system: CD3 mediated phosphorylation of ZAP70 in Jurkat cells; experiment: CD3 mediated phosphorylation of ZAP70 in Jurkat cells (HTRF); format: cell-based; settings: Jurkat cells stimulated with 20 μg/mL anti-CD3 antibody; for IC50: read-out: pZAP70 Inhibition IC50; for Emax: read-out: pZAP70 Inhibition - Maximum Percent Inhibition (% Inhibition)
Experimental: Inhibition of CD3 mediated phosphorylation of ZAP70 in Jurkat cells was measured by a cellular based Homogeneous Time-Resolved Fluorescence (HTRF) assay utilizing a Total ZAP-70 HTRF kit.
Briefly, Jurkat cells (˜1.3×10^6 cells/mL) were harvested on the day of experimentation. Cells were washed with PBS and resuspended in Assay Buffer (RPMI 1640 media plus 10% FBS) and counted.
Jurkat cells were seeded in Assay media at a total volume of 4 μL/well (40K cells/well) in a 384-low volume white flat bottom plate. The cells were then incubated at 37° C./5% CO2 for 30 minutes. The cells were then treated in duplicate with test compounds (3×) and reference compounds (3×) in a total volume of 4 μL, respectively. A compound dilution scheme is exemplified in FIG. 1.
The plate was then transferred to an incubator maintained at 37° C./5% CO2 for 2 minutes. Following incubation, cells were stimulated with 20 μg/mL of anti-CD3 antibody (1 mg/mL stock) and assay media was used to bring the total well volume 4 μL/well. The plate was then transferred to the incubator maintained at 37° C./5% CO2 for 2.5 minutes. Following incubation, 4 μL of lysis buffer (4×) provided in the kit was added to each well. The plate was then incubated at RT for 1 hour with gentle shaking. Following incubation, 4 μL of detection mix was added to each well and the plate was sealed with a plate sealer and left overnight at RT in the dark.
The Envision reader was set-up for Eu^3+ cryptate and fluorescence emission was read at two different wavelengths (620 nm and 665 nm). • Excitation filter: UV2(TRF) 320 nm • Emission filter: 665 nm • 2nd Emission filter: Europium 615 nm • Measurement height (mm): 6.5 • Excitation light (%): 100 • Delay (μs): 50 • Window time (μs): 400 • Time between flashes (μs): 2000 • Number of flashes: 100 • Number of flashes for 2nd detector: 100
The data is represented by the signal form the two wavelengths:
The ratio of the signal is calculated for each individual well:
The data was plotted using Graph Pad Prism. The significance between untreated vs. treated groups was assessed by One-way ANOVA and Bonferroni posttest comparing all columns in the graph.
ZAP70 IC50 results are shown in Table 6 for select compounds of the invention. The compound numbers correspond to the compound numbers in Table 1. […] “ND” indicates not determined.
ZAP70 percent maximum inhibition results are shown in Table 7 for select compounds of the invention. The compound numbers correspond to the compound numbers in Table 1.

[5] = Microsomal stability assay, human; format: in vitro ADME; settings: human microsomes; for half-life: read-out: Microsomal Stability (T1/2 min) Human
Experimental: as §1

[6] = Homo sapiens, maximum inhibition

Molecule | IC50 [4] | half-life [2] | half-life [3] | IC50 ([4]; Homo sapiens) | half-life [5] | ΔIROP (Increased Relative Optical Power) [1] | Microsomal Stability (T1/2 min) Rat ([2]; half-life) | Microsomal Stability (T1/2 min) Mouse ([3]; half-life) | pZAP70 Inhibition - Maximum Percent Inhibition (% Inhibition) ([4]; maximum inhibition) | Microsomal Stability (T1/2 min) Human ([5]; half-life) | Emax [4, 6]
4-((4-(4-fluorophenyl)-6-(trifluoromethoxy)-2H-chromen-3-yl)methyl)morpholine [Compound I-16] | < 1 nM | – | – | – | – | B (a ΔIROP of between thirty and fifty percent (>30% to ≤50%)) | C (a half-life of less than ten (<10) minutes) | B (a half-life of between ten (10) and thirty (30) minutes) | C (a percent maximum inhibition of between forty and greater than thirty percent (40%≥x>30%)) | A (a half-life of greater than thirty (>30) minutes) | –
CN1CCN(C(=O)C2=C(c3ccc(F)cc3)c3cc(OC(F)F)ccc3OC2)CC1 [Compound I-3] | – | < 10 min | < 10 min | < 1 nM | 10 to 30 min | B (a ΔIROP of between thirty and fifty percent (>30% to ≤50%)) | – | – | – | – | ≤ 30%
Fc1ccc(C2=C(c3nc(-c4ccccc4)no3)COc3ccc(OCC4CC4)cc32)cc1 [Compound I-12] | – | > 30 min | > 30 min | – | 10 to 30 min | C (an ΔIROP of between fifty and seventy percent (>50% to ≤70%)) | – | – | – | – | ≤ 30%
[2H]C([2H])([2H])Oc1ccc2c(c1)C(c1ccc(F)cc1)=C(CN1CCCC1)CO2 [Compound I-13] | – | < 10 min | < 10 min | 1 to 10 nM | 10 to 30 min | A (an Increased Relative Optical Power (ΔIROP) of less than or equal to thirty percent (≤30%)) | – | – | – | – | 40 to 50%
CC(C)Oc1ccc2c(c1)C(c1ccc(F)cc1)=C(CN1CCCC1)CO2 [Compound I-14] | – | < 10 min | < 10 min | < 1 nM | 10 to 30 min | C (an ΔIROP of between fifty and seventy percent (>50% to ≤70%)) | – | – | – | – | 30 to 40%
CC(C)c1ccc2c(c1)C(c1ccc(F)cc1)=C(CN1CCCC1)CO2 [Compound I-15] | – | < 10 min | < 10 min | < 1 nM | 10 to 30 min | C (an ΔIROP of between fifty and seventy percent (>50% to ≤70%)) | – | – | – | – | 30 to 40%
COc1ccc2c(c1)C(c1ccc(Cl)cc1)=C(CN1CCCC1)CO2 [Compound I-19] | – | < 10 min | < 10 min | 1 to 10 nM | 10 to 30 min | C (an ΔIROP of between fifty and seventy percent (>50% to ≤70%)) | – | – | – | – | > 50%
COc1ccc2c(c1)C(c1ccc(C(F)(F)F)cc1)=C(CN1CCCC1)CO2 [Compound I-20] | – | < 10 min | < 10 min | < 1 nM | 10 to 30 min | B (a ΔIROP of between thirty and fifty percent (>30% to ≤50%)) | – | – | – | – | 40 to 50%
COc1ccc2c(c1)C(c1cccc(F)c1)=C(CN1CCCC1)CO2 [Compound I-21] | – | < 10 min | < 10 min | 1 to 10 nM | 10 to 30 min | C (an ΔIROP of between fifty and seventy percent (>50% to ≤70%)) | – | – | – | – | 40 to 50%
COc1ccc2c(c1)C(c1ccc(C#N)cc1)=C(CN1CCCC1)CO2 [Compound I-22] | – | < 10 min | < 10 min | – | 10 to 30 min | B (a ΔIROP of between thirty and fifty percent (>30% to ≤50%)) | – | – | – | – | ≤ 30%
CC(C)Oc1ccc2c(c1)C(c1ccc(F)cc1)=C(C(=O)N1CCN(C)CC1)CO2 [Compound I-23] | – | 10 to 30 min | < 10 min | 1 to 10 nM | 10 to 30 min | A (an Increased Relative Optical Power (ΔIROP) of less than or equal to thirty percent (≤30%)) | – | – | – | – | > 50%
CC(C)c1ccc2c(c1)C(c1ccc(F)cc1)=C(C(=O)N1CCN(C)CC1)CO2 [Compound I-24] | – | < 10 min | < 10 min | 1 to 10 nM | < 10 min | C (an ΔIROP of between fifty and seventy percent (>50% to ≤70%)) | – | – | – | – | 40 to 50%

Continued, in another order:

IC50 [4] | half-life [2] | half-life [3] | IC50 ([4]; Homo sapiens) | half-life [5] | Molecule | ΔIROP (Increased Relative Optical Power) [1] | Microsomal Stability (T1/2 min) Rat ([2]; half-life) | Microsomal Stability (T1/2 min) Mouse ([3]; half-life) | pZAP70 Inhibition - Maximum Percent Inhibition (% Inhibition) ([4]; maximum inhibition) | Microsomal Stability (T1/2 min) Human ([5]; half-life) | Emax [4, 6]
– | 10 to 30 min | < 10 min | 1 to 10 nM | > 30 min | COc1ccc2c(c1)C(c1ccc(C#N)cc1)=C(C(=O)N1CCN(C)CC1)CO2 [Compound I-30] | C (an ΔIROP of between fifty and seventy percent (>50% to ≤70%)) | – | – | – | – | 40 to 50%
– | < 10 min | < 10 min | – | 10 to 30 min | COc1ccc2c(c1)C(c1cccc(F)c1)=C(C(=O)N1CCN(C)CC1)CO2 [Compound I-31] | C (an ΔIROP of between fifty and seventy percent (>50% to ≤70%)) | – | – | – | – | –
– | < 10 min | 10 to 30 min | – | 10 to 30 min | N#CCCOc1ccc2c(c1)C(c1ccc(F)cc1)=C(CN1CCCC1)CO2 [Compound I-32, 3-((4-(4-fluorophenyl)-3-(pyrrolidin-1-ylmethyl)-2H-chromen-6-yl)oxy)propanenitrile] | B (a ΔIROP of between thirty and fifty percent (>30% to ≤50%)) | – | – | – | – | –
– | > 30 min | > 30 min | 1 to 10 nM | > 30 min | O=C(O)CCOc1ccc2c(c1)C(c1ccc(F)cc1)=C(CN1CCCC1)CO2 [Compound I-33, 3-((4-(4-fluorophenyl)-3-(pyrrolidin-1-ylmethyl)-2H-chromen-6-yl)oxy)propanoic Acid] | A (an Increased Relative Optical Power (ΔIROP) of less than or equal to thirty percent (≤30%)) | – | – | – | – | > 50%
– | > 30 min | > 30 min | 1 to 10 nM | > 30 min | O=C(O)CCOc1ccc2c(c1)C(c1ccc(F)cc1)=C(C(=O)N1CCCC1)CO2 [Compound I-40, 3-((4-(4-fluorophenyl)-3-(pyrrolidine-1-carbonyl)-2H-chromen-6-yl)oxy)propanoic acid] | D (a ΔIROP of greater than seventy percent (>70%)) | – | – | – | – | 30 to 40%
